# Test results taken from patent publication US8383094B2, “Hepatitis C virus inhibitors” (Bristol-Myers Squibb Company, priority 2008, dated 2013).
# Read-outs that look alike come from different tables or passages of the source.
# Test system: HCV 1b genotype
# Test: HCV Replicon assay (HCV-neo replicon cells, wild-type)
# Format: cell-based
# Details: HCV 1b genotype replicon, read-out: 1b EC50 (in μM or range)
# [1] = Hepatitis C virus, range class A-D
compound,measurement,setting,value
"CC(C)(C)OC(=O)N[C@H](C(=O)N1CCC[C@H]1C(=O)Nc1ccc(C#Cc2ccc(NC(=O)[C@@H]3CCCN3C(=O)[C@@H](NC(=O)OC(C)(C)C)c3ccccc3)cc2)cc1)c1ccccc1 [VN22, Step a, di-tert-butyl(1,2-ethynediylbis(4,1-phenylenecarbamoyl(2S)-2,1-pyrrolidinediyl((1S)-2-oxo-1-phenyl-2,1-ethanediyl)))biscarbamate]",EC50,[1],< 4.57 nM
"CN(C)[C@@H](C(=O)N1CCC[C@H]1C(=O)Nc1ccc(C#Cc2ccc(NC(=O)[C@@H]3CCCN3C(=O)[C@@H](c3ccccc3)N(C)C)cc2)cc1)c1ccccc1 [VN23, (2S,2′S)-N,N′-(1,2-ethynediyldi-4,1-phenylene)bis(1-((2R)-2-(dimethylamino)-2-phenylacetyl)-2-pyrrolidinecarboxamide)]",EC50,[1],< 4.57 nM
"CC(C)(C)OC(=O)N[C@@H](C(=O)N1CCC[C@H]1C(=O)Nc1ccc(C#Cc2ccc(NC(=O)[C@@H]3CCCN3C(=O)[C@H](NC(=O)OC(C)(C)C)c3ccccc3)cc2)cc1)c1ccccc1 [VN23, Step a, di-tert-butyl(1,2-ethynediylbis(4,1-phenylenecarbamoyl(2S)-2,1-pyrrolidinediyl((1R)-2-oxo-1-phenyl-2,1-ethanediyl)))biscarbamate]",EC50,[1],< 4.57 nM
"CCC(=O)N[C@@H](C(=O)N1CCC[C@H]1C(=O)Nc1ccc(C#Cc2ccc(NC(=O)[C@@H]3CCCN3C(=O)[C@H](NC(=O)CC)c3ccccc3)cc2)cc1)c1ccccc1 [VN24, (2S,2′S)-N,N′-(1,2-ethynediyldi-4,1-phenylene)bis(1-((2R)-2-phenyl-2-(propionylamino)acetyl)-2-pyrrolidinecarboxamide)]",EC50,Hepatitis C virus,> 10000 nM
"CC(C)C(=O)N[C@@H](C(=O)N1CCC[C@H]1C(=O)Nc1ccc(C#Cc2ccc(NC(=O)[C@@H]3CCCN3C(=O)[C@H](NC(=O)C(C)C)c3ccccc3)cc2)cc1)c1ccccc1 [VN25, (2S,2′S)-N,N′-(1,2-ethynediyldi-4,1-phenylene)bis(1-((2R)-2-(isobutyrylamino)-2-phenylacetyl)-2-pyrrolidinecarboxamide)]",EC50,[1],< 4.57 nM
"CC(=O)N[C@@H](C(=O)N1CCC[C@H]1C(=O)Nc1ccc(C#Cc2ccc(NC(=O)[C@@H]3CCCN3C(=O)[C@H](NC(C)=O)c3ccccc3)cc2)cc1)c1ccccc1 [VN26, (2S,2′S)-N,N′-(1,2-ethynediyldi-4,1-phenylene)bis(1-((2R)-2-acetamido-2-phenylacetyl)-2-pyrrolidinecarboxamide)]",EC50,[1],< 4.57 nM
"CS(=O)(=O)N[C@@H](C(=O)N1CCC[C@H]1C(=O)Nc1ccc(C#Cc2ccc(NC(=O)[C@@H]3CCCN3C(=O)[C@H](NS(C)(=O)=O)c3ccccc3)cc2)cc1)c1ccccc1 [VN27, (2S,2′S)-N,N′-(1,2-ethynediyldi-4,1-phenylene)bis(1-((2R)-2-((methylsulfonyl)amino)-2-phenylacetyl)-2-pyrrolidinecarboxamide)]",EC50,[1],< 4.57 nM
"CN(C)[C@H](Cc1ccccc1)C(=O)N1CCC[C@H]1C(=O)Nc1ccc(C#Cc2ccc(NC(=O)[C@@H]3CCCN3C(=O)[C@@H](Cc3ccccc3)N(C)C)cc2)cc1 [VN28, (2S,2′S)-N,N′-(1,2-ethynediyldi-4,1-phenylene)bis(1-((2R)-2-(dimethylamino)-3-phenylpropanoyl)-2-pyrrolidinecarboxamide)]",EC50,[1],< 4.57 nM
"CN(C)[C@@H](Cc1ccccc1)C(=O)N1CCC[C@H]1C(=O)Nc1ccc(C#Cc2ccc(NC(=O)[C@@H]3CCCN3C(=O)[C@H](Cc3ccccc3)N(C)C)cc2)cc1 [VN29, (2S,2′S)-N,N′-(1,2-ethynediyldi-4,1-phenylene)bis(1-((2S)-2-(dimethylamino)-3-phenylpropanoyl)-2-pyrrolidinecarboxamide)]",EC50,[1],100 to 999 nM
"CNC(C(=O)N1CCC[C@H]1C(=O)Nc1ccc(C#Cc2ccc(NC(=O)[C@@H]3CCCN3C(=O)C(NC)c3ccccc3)cc2)cc1)c1ccccc1 (stereo partly drawn) [VN30, (2S,2′S)-N,N′-(1,2-ethynediyldi-4,1-phenylene)bis(1-((methylamino)(phenyl)acetyl)-2-pyrrolidinecarboxamide)]",EC50,[1],< 4.57 nM
"CN[C@H](C(=O)N1CCC[C@H]1C(=O)Nc1ccc(C#Cc2ccc(NC(=O)[C@@H]3CCCN3C(=O)[C@@H](NC)c3ccccc3)cc2)cc1)c1ccccc1 [VN31, (2S,2′S)-N,N′-(1,2-ethynediyldi-4,1-phenylene)bis(1-((2S)-2-(methylamino)-2-phenylacetyl)-2-pyrrolidinecarboxamide)]",EC50,[1],< 4.57 nM
"CN1CCc2ccccc2[C@@H]1C(=O)N1CCC[C@H]1C(=O)Nc1ccc(C#Cc2ccc(NC(=O)[C@@H]3CCCN3C(=O)[C@H]3c4ccccc4CCN3C)cc2)cc1 [VN32, (R,2S,2′S)-N,N′-(4,4′-(ethyne-1,2-diyl)bis(4,1-phenylene))bis(1-((R)-2-methyl-1,2,3,4-tetrahydroisoquinoline-1-carbonyl)pyrrolidine-2-carboxamide)]",EC50,[1],100 to 999 nM
"CN(C)C(C)(C(=O)N1CCC[C@H]1C(=O)Nc1ccc(C#Cc2ccc(NC(=O)[C@@H]3CCCN3C(=O)C(C)(c3ccccc3)N(C)C)cc2)cc1)c1ccccc1 (stereo partly drawn) [VN37, (2S,2′S)-N,N′-(1,2-ethynediyldi-4,1-phenylene)bis(1-(2-(dimethylamino)-2-phenylpropanoyl)-2-pyrrolidinecarboxamide)]",EC50,[1],< 4.57 nM
"CN(C)C(C)(C(=O)N1CCC[C@H]1C(=O)Nc1ccc(C#Cc2ccc(NC(=O)[C@@H]3CCCN3C(=O)C(C)(c3ccccc3)N(C)C)cc2)cc1)c1ccccc1 (stereo partly drawn) [VN38, (2S,2′S)-N,N′-(1,2-ethynediyldi-4,1-phenylene)bis(1-(2-(dimethylamino)-2-phenylpropanoyl)-2-pyrrolidinecarboxamide)]",EC50,range class A-D,< 4.57 nM
"CN1Cc2ccccc2C1C(=O)N1CCC[C@H]1C(=O)Nc1ccc(C#Cc2ccc(NC(=O)[C@@H]3CCCN3C(=O)C3c4ccccc4CN3C)cc2)cc1 (stereo partly drawn) [VN39, (2S,2′S)-N,N′-(1,2-ethynediyldi-4,1-phenylene)bis(1-((2-methyl-2,3-dihydro-1H-isoindol-1-yl)carbonyl)-2-pyrrolidinecarboxamide)]",EC50,range class A-D,100 to 999 nM
"CN1Cc2ccccc2C1C(=O)N1CCC[C@H]1C(=O)Nc1ccc(C#Cc2ccc(NC(=O)[C@@H]3CCCN3C(=O)C3c4ccccc4CN3C)cc2)cc1 (stereo partly drawn) [VN40, (2S,2′S)-N,N′-(1,2-ethynediyldi-4,1-phenylene)bis(1-((2-methyl-2,3-dihydro-1H-isoindol-1-yl)carbonyl)-2-pyrrolidinecarboxamide)]",EC50,range class A-D,4.57 to 99 nM
"CN(C)C1(C(=O)N2CCC[C@H]2C(=O)Nc2ccc(C#Cc3ccc(NC(=O)[C@@H]4CCCN4C(=O)C4(N(C)C)CCc5ccccc54)cc3)cc2)CCc2ccccc21 (stereo partly drawn) [VN41, (2S,2′S)-N,N′-(1,2-ethynediyldi-4,1-phenylene)bis(1-((1-(dimethylamino)-2,3-dihydro-1H-inden-1-yl)carbonyl)-2-pyrrolidinecarboxamide)]",EC50,[1],< 4.57 nM
"CN(C)C1(C(=O)N2CCC[C@H]2C(=O)Nc2ccc(C#Cc3ccc(NC(=O)[C@@H]4CCCN4C(=O)C4(N(C)C)CCc5ccccc54)cc3)cc2)CCc2ccccc21 (stereo partly drawn) [VN42, (2S,2′S)-N,N′-(1,2-ethynediyldi-4,1-phenylene)bis(1-((1-(dimethylamino)-2,3-dihydro-1H-inden-1-yl)carbonyl)-2-pyrrolidinecarboxamide)]",EC50,range class A-D,4.57 to 99 nM
"CN1CCN(C(C(=O)N2CCC[C@H]2C(=O)Nc2ccc(C#Cc3ccc(NC(=O)[C@@H]4CCCN4C(=O)C(c4ccccc4)N4CCN(C)CC4)cc3)cc2)c2ccccc2)CC1 (stereo partly drawn) [VN43, (2S,2′S)-N,N′-(1,2-ethynediyldi-4,1-phenylene)bis(1-((4-methyl-1-piperazinyl)(phenyl)acetyl)-2-pyrrolidinecarboxamide)]",EC50,Hepatitis C virus,0.015 nM
"CN(CC(N)=O)C(C(=O)N1CCC[C@H]1C(=O)Nc1ccc(C#Cc2ccc(NC(=O)[C@@H]3CCCN3C(=O)C(c3ccccc3)N(C)CC(N)=O)cc2)cc1)c1ccccc1 (stereo partly drawn) [VN45, (2S,2′S)-N,N′-(1,2-ethynediyldi-4,1-phenylene)bis(1-(((2-amino-2-oxoethyl)(methyl)amino)(phenyl)acetyl)-2-pyrrolidinecarboxamide)]",EC50,[1],4.57 to 99 nM
"CC(=O)N(C)C(C(=O)N1CCC[C@H]1C(=O)Nc1ccc(C#Cc2ccc(NC(=O)[C@@H]3CCCN3C(=O)C(c3ccccc3)N(C)C(C)=O)cc2)cc1)c1ccccc1 (stereo partly drawn) [VN46, (2S,2′S)-N,N′-(1,2-ethynediyldi-4,1-phenylene)bis(1-((acetyl(methyl)amino)(phenyl)acetyl)-2-pyrrolidinecarboxamide)]",EC50,[1],100 to 999 nM
"CCN(C)C(C(=O)N1CCC[C@H]1C(=O)Nc1ccc(C#Cc2ccc(NC(=O)[C@@H]3CCCN3C(=O)C(c3ccccc3)N(C)CC)cc2)cc1)c1ccccc1 (stereo partly drawn) [VN47, (2S,2′S)-N,N′-(1,2-ethynediyldi-4,1-phenylene)bis(1-((ethyl(methyl)amino)(phenyl)acetyl)-2-pyrrolidinecarboxamide)]",EC50,[1],4.57 to 99 nM
"CC(=O)N1CCN(C(C(=O)N2CCC[C@H]2C(=O)Nc2ccc(C#Cc3ccc(NC(=O)[C@@H]4CCCN4C(=O)C(c4ccccc4)N4CCN(C(C)=O)CC4)cc3)cc2)c2ccccc2)CC1 (stereo partly drawn) [VN48, (2S,2′S)-N,N′-(1,2-ethynediyldi-4,1-phenylene)bis(1-((4-acetyl-1-piperazinyl)(phenyl)acetyl)-2-pyrrolidinecarboxamide)]",EC50,[1],< 4.57 nM
"CC(=O)N1CCN(C(C(=O)N2CCC[C@H]2C(=O)Nc2ccc(C#Cc3ccc(NC(=O)[C@@H]4CCCN4C(=O)C(c4ccccc4)N4CCN(C(C)=O)CC4)cc3)cc2)c2ccccc2)CC1 (stereo partly drawn) [VN49, (2S,2′S)-N,N′-(1,2-ethynediyldi-4,1-phenylene)bis(1-((4-acetyl-1-piperazinyl)(phenyl)acetyl)-2-pyrrolidinecarboxamide)]",EC50,range class A-D,4.57 to 99 nM
"O=C(Nc1ccc(C#Cc2ccc(NC(=O)[C@@H]3CCCN3C(=O)C(c3ccccc3)N3CC[C@H](O)C3)cc2)cc1)[C@@H]1CCCN1C(=O)C(c1ccccc1)N1CC[C@H](O)C1 (stereo partly drawn) [VN50, (2S,2′S)-N,N′-(1,2-ethynediyldi-4,1-phenylene)bis(1-(((3S)-3-hydroxy-1-pyrrolidinyl)(phenyl)acetyl)-2-pyrrolidinecarboxamide)]",EC50,Hepatitis C virus,0.5 nM
